How the values were obtained:
Format in all cases: biochemical
CaMKK2 (h) = molecular target: T1, CaMKK2 (h) (Homo sapiens, UniProt Q96RR4); assay: CAMKK2 kinase activity assay (DiscoverX/Eurofins, radiometric [gamma-33P]-ATP); details: ATP concentration of 10 µM
T1 construct: purchased DiscoverX/Eurofins
Protocol: The assay is available as a product of DiscoverX/Eurofins. CaMKK2 (h) was incubated with 20 mM Tris/HCl pH 8.5, 0.2 mM EDTA, 0.5% BSA, 0.5 mM CaCl2, 0.016 mg/mL calmodulin, 150 µM […], 10 mM MgAcetate and [gamma-33P]-ATP (specific activity and concentration of 10 µM). The reaction was initiated by the addition of the Mg/ATP mix. After incubation for 40 min 13 at room temperature, the reaction was stopped by the addition of phosphoric acid to a concentration of 0.5%. An aliquot of the reaction was then spotted onto a filter and washed four times for 4 min in 0.425% phosphoric acid and once in methanol prior to drying and scintillation counting.

ATM (h) = molecular target: T2, ATM (h) (Homo sapiens, UniProt Q13315); assay: ATM kinase activity assay (DiscoverX/Eurofins, HTRF); details: ATP 10 µM; for remaining activity at 10 µM: compound at 10 μM, read-out: ATM residual activity at 10μM
T2 construct: purchased DiscoverX/Eurofins
Protocol: (§1) The assay is available as a product of DiscoverX/Eurofins. ATM (h) was incubated in assay buffer containing 30 nM GST-cMyc-p53 and Mg/ATP (concentration of 10 µM). The reaction is initiated by the addition of the Mg/ATP mix. After incubation for 30 min at room temperature, the reaction was stopped by the addition of stop solution containing EDTA. Finally, detection buffer was added, which contained a d2-labelled anti-GST monoclonal antibody and a europium-labelled anti-phospho Ser15 antibody against phosphorylated p53. The plate was then read in time-resolved fluorescence mode, and the homogeneous time-resolved fluorescence (HTRF) signal is determined according to the formula HTRF = 10000 x (Em665 nm/Em620 nm).

DNA-PK (h) = molecular target: T3, DNA-PK (h) (Homo sapiens, UniProt P78527); assay: DNA-PK kinase activity assay (DiscoverX/Eurofins, HTRF); details: ATP 10 µM
T3 construct: purchased DiscoverX/Eurofins
Protocol: as §1, with “DiscoverX/Eurofins. DNA-PK” for “DiscoverX/Eurofins. ATM”, “containing 50” for “containing 30”, “plate is” for “plate was”, “= 10,000 ×” for “= 10000 x”

ATR/ATRIP (h) = molecular target: T4, ATR/ATRIP (h) (Homo sapiens, UniProt Q13535); assay: ATR kinase activity assay (DiscoverX/Eurofins, HTRF); details: ATP 10 µM
T4 construct: purchased DiscoverX/Eurofins
Protocol: as §1, with “DiscoverX/Eurofins. ATR/ATRIP” for “DiscoverX/Eurofins. ATM”, “containing 50” for “containing 30”, “reaction was” for “reaction is”, “plate is” for “plate was”, “signal was” for “signal is”, “= 10,000 ×” for “= 10000 x”

T2 sequence (Q13315 whole entry): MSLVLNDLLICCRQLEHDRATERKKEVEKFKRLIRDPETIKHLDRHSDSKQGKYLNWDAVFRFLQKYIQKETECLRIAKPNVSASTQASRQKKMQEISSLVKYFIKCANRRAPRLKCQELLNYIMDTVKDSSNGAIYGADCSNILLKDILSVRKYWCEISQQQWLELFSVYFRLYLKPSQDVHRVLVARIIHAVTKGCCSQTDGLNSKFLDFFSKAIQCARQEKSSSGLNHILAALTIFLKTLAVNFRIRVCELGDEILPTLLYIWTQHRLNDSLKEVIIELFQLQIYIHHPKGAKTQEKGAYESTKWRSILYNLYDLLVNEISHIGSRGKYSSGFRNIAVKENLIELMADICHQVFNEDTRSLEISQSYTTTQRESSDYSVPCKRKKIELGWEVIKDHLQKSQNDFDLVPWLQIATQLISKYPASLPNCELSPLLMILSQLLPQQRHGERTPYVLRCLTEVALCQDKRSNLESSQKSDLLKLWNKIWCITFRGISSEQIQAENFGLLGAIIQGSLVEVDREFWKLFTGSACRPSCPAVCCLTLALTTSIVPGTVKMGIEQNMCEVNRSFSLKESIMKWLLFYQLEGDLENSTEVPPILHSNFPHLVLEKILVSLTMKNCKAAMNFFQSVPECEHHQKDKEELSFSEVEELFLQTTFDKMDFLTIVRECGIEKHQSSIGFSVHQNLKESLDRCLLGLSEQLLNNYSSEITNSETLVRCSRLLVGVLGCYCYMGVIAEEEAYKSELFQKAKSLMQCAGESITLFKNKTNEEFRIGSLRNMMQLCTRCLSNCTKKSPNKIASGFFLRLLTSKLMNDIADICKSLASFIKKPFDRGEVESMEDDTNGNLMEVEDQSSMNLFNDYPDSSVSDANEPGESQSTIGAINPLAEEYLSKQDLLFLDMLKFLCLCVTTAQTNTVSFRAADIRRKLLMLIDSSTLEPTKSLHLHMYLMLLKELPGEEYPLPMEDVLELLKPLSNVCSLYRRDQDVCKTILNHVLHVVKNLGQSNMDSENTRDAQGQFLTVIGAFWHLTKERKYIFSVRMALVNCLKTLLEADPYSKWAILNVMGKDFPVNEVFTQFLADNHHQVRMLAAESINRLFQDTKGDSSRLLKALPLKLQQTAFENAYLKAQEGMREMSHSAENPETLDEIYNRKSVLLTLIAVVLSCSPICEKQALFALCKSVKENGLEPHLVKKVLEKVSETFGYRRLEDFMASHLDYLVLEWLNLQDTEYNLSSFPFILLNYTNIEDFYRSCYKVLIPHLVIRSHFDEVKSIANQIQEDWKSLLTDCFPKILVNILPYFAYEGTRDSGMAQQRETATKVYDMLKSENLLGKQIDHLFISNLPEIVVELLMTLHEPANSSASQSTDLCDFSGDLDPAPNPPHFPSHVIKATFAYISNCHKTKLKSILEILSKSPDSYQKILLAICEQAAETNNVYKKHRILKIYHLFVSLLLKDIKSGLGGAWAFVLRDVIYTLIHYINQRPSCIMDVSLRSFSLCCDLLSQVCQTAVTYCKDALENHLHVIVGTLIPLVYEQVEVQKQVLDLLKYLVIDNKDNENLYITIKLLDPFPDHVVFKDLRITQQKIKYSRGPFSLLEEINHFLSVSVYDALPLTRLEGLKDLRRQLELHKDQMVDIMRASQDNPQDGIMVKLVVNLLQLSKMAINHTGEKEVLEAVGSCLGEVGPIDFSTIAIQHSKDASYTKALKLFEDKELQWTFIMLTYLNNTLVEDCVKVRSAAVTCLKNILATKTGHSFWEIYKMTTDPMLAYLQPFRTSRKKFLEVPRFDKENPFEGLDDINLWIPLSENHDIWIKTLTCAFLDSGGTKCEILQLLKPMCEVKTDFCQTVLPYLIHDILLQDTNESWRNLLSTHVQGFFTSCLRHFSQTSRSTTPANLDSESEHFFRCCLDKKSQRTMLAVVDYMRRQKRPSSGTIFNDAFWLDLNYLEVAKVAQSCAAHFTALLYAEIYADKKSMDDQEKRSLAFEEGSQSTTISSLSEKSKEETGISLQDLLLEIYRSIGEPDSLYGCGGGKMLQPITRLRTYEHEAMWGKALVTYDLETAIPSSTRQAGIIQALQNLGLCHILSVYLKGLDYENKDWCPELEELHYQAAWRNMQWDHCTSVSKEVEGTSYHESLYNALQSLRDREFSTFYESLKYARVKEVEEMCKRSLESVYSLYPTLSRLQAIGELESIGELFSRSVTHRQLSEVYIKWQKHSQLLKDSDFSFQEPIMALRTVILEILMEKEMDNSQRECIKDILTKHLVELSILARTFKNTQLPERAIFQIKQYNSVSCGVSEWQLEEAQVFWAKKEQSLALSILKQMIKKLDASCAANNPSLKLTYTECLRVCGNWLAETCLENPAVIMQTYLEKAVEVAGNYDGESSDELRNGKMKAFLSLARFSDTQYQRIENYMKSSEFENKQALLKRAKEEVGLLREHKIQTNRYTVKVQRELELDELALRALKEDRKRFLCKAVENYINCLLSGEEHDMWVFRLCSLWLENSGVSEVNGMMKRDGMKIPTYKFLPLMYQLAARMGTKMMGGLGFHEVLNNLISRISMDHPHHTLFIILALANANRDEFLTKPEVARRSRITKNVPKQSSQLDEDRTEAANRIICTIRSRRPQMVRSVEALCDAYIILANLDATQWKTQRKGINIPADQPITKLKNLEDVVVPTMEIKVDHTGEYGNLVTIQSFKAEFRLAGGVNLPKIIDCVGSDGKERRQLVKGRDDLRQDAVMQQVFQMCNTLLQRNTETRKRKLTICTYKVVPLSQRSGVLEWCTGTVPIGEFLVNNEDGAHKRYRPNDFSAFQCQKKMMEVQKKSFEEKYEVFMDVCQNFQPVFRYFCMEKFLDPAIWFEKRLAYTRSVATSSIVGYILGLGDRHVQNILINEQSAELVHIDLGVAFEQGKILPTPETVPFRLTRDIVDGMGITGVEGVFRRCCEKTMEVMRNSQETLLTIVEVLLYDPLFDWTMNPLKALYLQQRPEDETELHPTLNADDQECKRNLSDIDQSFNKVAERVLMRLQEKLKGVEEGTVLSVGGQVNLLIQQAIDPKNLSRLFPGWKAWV

Compound	IC50 (CaMKK2 (h))	hill slope (CAMKK2 dose-response) (CaMKK2 (h))	remaining activity at 10 µM (ATM (h))	further results
CC(=O)c1cn(-c2ccn3ncc(-c4cccc(C(=O)C5CNC5)c4)c3n2)cn1 [QFASG-1]	> 10 µM	–	–	–
CC(=O)c1ccc(-c2cnn3ccc(C(N)=O)nc23)cc1 [QFASG-2]	3 µM	−0.85	–	–

Further lines, with some results ahead:

IC50 (CaMKK2 (h))	hill slope (CAMKK2 dose-response) (CaMKK2 (h))	remaining activity at 10 µM (ATM (h))	Compound	further results
6 µM	−1.05	–	CNC(=O)Nc1ccc(-c2ccn3ncc(-c4c[nH]c(C#N)n4)c3n2)cc1 [QFASG-3]	–
–	–	98%	Cc1cc(N(C)c2ccc3ncc(NCC(=O)O)cc3c2)n(C2CC2)n1 [QFASG-4]	–
–	–	71%	Cn1cc(-c2ccc3ncc(NC(=O)Nc4cccc(F)c4F)cc3c2)cn1 [QFASG-5]	–
–	–	31%	N#Cc1ccc2ncc(NC(=O)Nc3cccnc3)cc2c1 [QFASG-6, 1-(6-cyanoquinolin-3-yl)-3-(pyridin-3-yl) urea]	IC50 (DNA-PK (h)): 8 µM; hill slope (DNA-PK dose-response) (DNA-PK (h)): −0.85; ATR inhibition (in words) (ATR/ATRIP (h)): no ATR inhibition was observed; IC50 (ATR/ATRIP (h)): > 10 µM; IC50 (ATM (h)): 4 µM; hill slope (ATM dose-response) (ATM (h)): −1.1

From paper PMC11021760, “Quantum-assisted fragment-based automated structure generator (QFASG) for small molecule design: an in vitro study” (Frontiers in Chemistry, 2024)
